Results published in patent US10596291B2, “Effective anti-bacteria and anti-viral air treatment device” (KONINKLIJKE PHILIPS N.V., priority 2014, dated 2020).
Read-outs that look alike come from different tables or passages of the source.

Assay: Particle generation and ozone consumption by type of terpene in 26.5 m^3 test chamber
Format: physicochemical
Method: Some further measurements were done with setups as describe above. Data in relation to particle generation and ozone consumption as function of type of terpene were determined. […] It is clear that e.g. eucalyptol and thymol is most desired amongst these four options.

[1] = terpene approx. 1 mg/m^3, 26.5 m^3 test chamber, initial ozone 100 ppb
[2] = terpene concentration 1 mg/m^3, 26.5 m^3 test chamber, initial ozone 100 ppb

Compound | Particle yield | average O3 consumption [%] | Particle yield [1] | average O3 consumption [2] [%]
Cc1ccc(C(C)C)cc1O [Carvacrol] | 851.8 10^6/mol | 0 | – | –
CC12CCC(CC1)C(C)(C)O2 [Eucalyptol, Eucalyptol (1,8-cineol)] | – | – | 779.9 10^6/mol | 2
C=CCc1ccc(O)c(OC)c1 [Eugenol] | – | – | 18742.9 10^6/mol | 15
CC(C)=CCC/C(C)=C/CO [Geraniol] | – | – | 57608.1 10^6/mol | 54
C=C(C)[C@H]1CC=C(C)CC1 [Limonene] | – | – | 94003.4 10^6/mol | 31
C=CC(C)(O)CCC=C(C)C (stereo not shown) [Linalool] | – | – | 76911.2 10^6/mol | 44
Cc1ccc(C(C)C)c(O)c1 [Thymol] | – | – | 498.2 10^6/mol | 2
y-terpinene | 112499.9 10^6/mol | 19 | – | –
